This note sets out measurements from patent US6706880B2 (Research Triangle Institute, priority 1990, dated 2004).

Counter-ions that a name gives are not always drawn.

The target of data set [1] is dopamine transporter (UniProt P23977). Type of data set: binding. The following applies: read-out: IC50 DA [3H]-WIN 35,428; Table IV. An excerpt:
(§1) Illustrative in vitro assays for binding are described in Boja et al Ann. NY Acad. Sci. 654:282-291 (1992), which is incorporated herein by reference in its entirety. […] Alternatively, the compounds may be analyzed by their ability to inhibit reuptake of a labelled neurotransmitter in a sample, in particular, in synaptosomes.

Data set [2] concerns the target T1, serotonin transporter (Rattus norvegicus, UniProt P31652).
T1 construct: from tissue
Briefly: Inhibition of [3H]paroxetine radioligand binding at the serotonin transporter. The following applies: IC50 5-HT [3H]-paroxetine, Table IV.
Description: as §1

Data set [3] addresses norepinephrine transporter (UniProt Q9WTR4). Briefly: Inhibition of [3H]nisoxetine radioligand binding at the norepinephrine transporter. The following applies: read-out: IC50 NE [3H]-nisoxetine; Table IV.
Description: as §1

T1 sequence (P31652 whole entry): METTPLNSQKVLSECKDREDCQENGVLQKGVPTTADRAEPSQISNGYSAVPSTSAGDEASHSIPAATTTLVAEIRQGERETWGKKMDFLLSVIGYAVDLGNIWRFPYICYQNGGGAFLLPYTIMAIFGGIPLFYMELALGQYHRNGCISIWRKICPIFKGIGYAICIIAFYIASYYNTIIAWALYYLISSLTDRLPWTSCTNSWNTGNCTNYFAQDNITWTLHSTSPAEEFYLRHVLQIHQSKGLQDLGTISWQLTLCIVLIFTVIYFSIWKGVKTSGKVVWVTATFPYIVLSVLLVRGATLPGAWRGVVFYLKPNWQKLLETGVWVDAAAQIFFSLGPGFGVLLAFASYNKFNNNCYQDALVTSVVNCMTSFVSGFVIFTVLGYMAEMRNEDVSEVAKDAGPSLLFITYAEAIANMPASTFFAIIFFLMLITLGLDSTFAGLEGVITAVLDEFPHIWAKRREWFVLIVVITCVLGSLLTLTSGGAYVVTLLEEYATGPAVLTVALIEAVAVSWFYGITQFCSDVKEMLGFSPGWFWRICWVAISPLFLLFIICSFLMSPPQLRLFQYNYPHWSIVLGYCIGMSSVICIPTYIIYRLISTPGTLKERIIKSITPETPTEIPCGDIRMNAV

The term melting point denotes the temperature of the solid-liquid transition. `Cc1ccc([C@H]2C[C@@H]3CC[C@H]([C@H]2c2nn[nH]n2)N3C)cc1` (as salt: hydrochloride) [RTI-157, 3β-(4-Methylphenyl)-tropane-2β-tetrazole Hydrochloride]: the melting point is < 212 °C (dec.).
Still for that read-out and setting: the value for `Cc1cc([C@H]2[C@@H](c3ccc(Cl)cc3)C[C@@H]3CC[C@H]2N3C)on1` (as salt: hydrochloride) [RTI-165, 3β-(4-Chlorophenyl)-2β-(3-methylisoxazol-5-yl)tropane Hydrochloride] was 235 °C (dec.).
The compound `CN1[C@H]2CC[C@@H]1[C@@H](c1cc(-c3ccccc3)no1)[C@@H](c1ccc(Cl)cc1)C2` (as salt: hydrochloride) [RTI-4229-177, 3β-(4-Chlorophenyl)-2β-(3-phenylisoxazol-5-yl)tropane Hydrochloride] registered a melting point of 287 °C.
Turning to `CN1C2CCC1C(c1nnc(-c3ccccc3)s1)C(c1ccc(Cl)cc1)C2` (stereo not drawn) (as salt: hydrochloride) [RTI-4229-200, 3β-(4-Chlorophenyl)-2β-(S-phenyl-1,3,4-thiadiazol-2-yl)-tropane Hydrochloride], the melting point lay in the range of 165 to 170 °C.
The term IC50 denotes the concentration at which inhibition is half-maximal. As for `CN1[C@H]2CC[C@@H]1[C@@H](C#N)[C@@H](c1ccc(Cl)cc1)C2` [RTI-161, 3β-(4-Chlorophenyl)-tropane-2β-nitrile], the melting point is > 220 °C (dec.). The IC50 in data set [1] turned out to be 0.0131 ± 0.00078 µM. In addition, the concentration for half-maximal inhibition (IC50) in data set [2] turned out to be 1.89 ± 0.134 µM. For the same compound, the IC50 in data set [3] was determined as 2.52 ± 0.253 µM.
